Drawing on patent US7741354B2, “Inhibitors of glutaminyl cyclase” (Probiodrug AG, priority 2006, dated 2010), this text covers IC50 for 34 compounds.

Each structure is given as a SMILES string.

For one assay, the target named is hQC (Homo sapiens, UniProt Q16769). As to the kind of experiment: Fluorometric (fluorescent) assay of hQC inhibition, IC50. Particulars: hQC inhibition; read-out: IC50. It is filed as biochemical. The method, then: All compounds were immediately tested regarding their activity as hQC inhibitors.
Sequence of hQC (Q16769 29-361): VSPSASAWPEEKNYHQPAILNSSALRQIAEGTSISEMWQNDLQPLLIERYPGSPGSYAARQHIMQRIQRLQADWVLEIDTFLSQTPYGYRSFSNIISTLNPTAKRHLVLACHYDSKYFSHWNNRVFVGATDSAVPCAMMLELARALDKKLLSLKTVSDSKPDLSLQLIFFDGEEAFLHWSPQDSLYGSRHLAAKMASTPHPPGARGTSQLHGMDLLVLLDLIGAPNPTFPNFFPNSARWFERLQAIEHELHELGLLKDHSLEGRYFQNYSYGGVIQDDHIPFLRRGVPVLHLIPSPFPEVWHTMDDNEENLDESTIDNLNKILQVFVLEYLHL
The purity of the compounds was determined by HPLC-MS. The IC50 value against hQC was measured using the fluorescent assay.
All measurements were performed with a BioAssay Reader HTS-7000Plus for microplates (Perkin Elmer) at 30° C. QC activity was evaluated fluorometrically using H-Gln-βNA. The samples consisted of 0.2 mM fluorogenic substrate, 0.25 U pyroglutamyl aminopeptidase (Unizyme, Horsholm, Denmark) in 0.2 M Tris/HCl, pH 8.0 containing 20 mM EDTA and an appropriately diluted aliquot of QC in a final volume of 250 μl. Excitation/emission wavelengths were 320/410 nm. The assay reactions were initiated by addition of glutaminyl cyclase. QC activity was determined from a standard curve of β-naphthylamine under assay conditions. One unit is defined as the amount of QC catalyzing the formation of 1 μmol pGlu-βNA from H-Gln-βNA per minute under the described conditions.
In a second fluorometric assay, QC was activity determined using H-Gln-AMC as substrate. Reactions were carried out at 30° C. utilizing the NOVOStar reader for microplates (BMG labtechnologies). The samples consisted of varying concentrations of the fluorogenic substrate, 0.1 U pyroglutamyl aminopeptidase (Qiagen) in 0.05 M Tris/HCl, pH 8.0 containing 5 mM EDTA and an appropriately diluted aliquot of QC in a final volume of 250 μl. Excitation/emission wavelengths were 380/460 nm. The assay reactions were initiated by addition of glutaminyl cyclase. QC activity was determined from a standard curve of 7-amino-4-methylcoumarin under assay conditions. The kinetic data were evaluated using GraFit sofware.
For inhibitor testing, the sample composition was the same as described above, except of the putative inhibitory compound added. For a rapid test of QC-inhibition, samples contained 4 mM of the respective inhibitor and a substrate concentration at 1 KM. For detailed investigations of the inhibition and determination of Ki-values, influence of the inhibitor on the auxiliary enzymes was investigated first. […] The inhibitory constant was evaluated by fitting the set of progress curves to the general equation for competitive inhibition using GraFit software.
As a reminder, the IC50 is the concentration needed to halve the response being measured. With `CSc1ccc(C(Nc2ccc3[nH]cnc3c2)c2nnnn2CC2COC(C)(C)O2)cc1` (centres unmarked) [compound 130, (1H-Benzoimidazol-5-yl)-[[1-(2,2-dimethyl-[1,3]dioxolan-4-ylmethyl)-1H-tetrazol-5-yl]-(4-methylsulfanyl-phenyl)-methyl]-amine], the 50% inhibitory concentration (IC50) came out at 7.6 µM.
Still for that read-out and setting: the result for `CC(Cc1ccc2c(c1)OCO2)C(Nc1ccc2[nH]cnc2c1)c1nnnn1C1CCCCC1` (centres unmarked) [compound 116, [3-Benzo[1,3]dioxol-5-yl-1-(1-cyclohexyl-1H-tetrazol-5-yl)-2-methyl-propyl]-(1H-benzoimidazol-5-yl)-amine] reads 7.6 µM; that for `Oc1cccc(C(Nc2ccc3[nH]cnc3c2)c2nnnn2CC2CCCO2)c1` (centres unmarked) [compound 152], 9.4 µM; that for `c1ccc(C(c2ccccc2)n2nnnc2C(Nc2ccc3[nH]cnc3c2)c2cccnc2)cc1` (centres unmarked) [compound 158, [(1-Benzhydryl-1H-tetrazol-5-yl)-pyridin-3-yl-methyl]-(1H-benzoimidazol-5-yl)-amine], 9.4 µM.
On the same count and under the same terms, the same measure for `Clc1ccc(Cn2nnnc2C(Nc2ccc3[nH]cnc3c2)c2ccc3nsnc3c2)cc1` (centres unmarked) [compound 166]: 0.4 µM; for `Cc1ccc(C(Nc2ccc3[nH]cnc3c2)c2nnnn2CCCN2CCCC2=O)cc1C` (centres unmarked) [compound 164, 1-(3-{5-[(1H-Benzoimidazol-5-ylamino)-(3,4-dimethyl-phenyl)-methyl]-tetrazol-1-yl}-propyl)-pyrrolidin-2-one]: 4.9 µM; for `CC1(C)OCC(Cn2nnnc2C(Nc2ccc3[nH]cnc3c2)c2ccc(Cl)c([N+](=O)[O-])c2)O1` (centres unmarked) [compound 171, (1H-Benzoimidazol-5-yl)-{(4-chloro-3-nitro-phenyl)-[1-(2,2-dimethyl-[1,3]dioxolan-4-ylmethyl)-1H-tetrazol-5-yl]-methyl}-amine]: 8.5 µM.
Same read-out and setting: the same measure for `c1ccc(-c2ccc(C(Nc3ccc4[nH]cnc4c3)c3nnnn3CCc3cccs3)cc2)nc1` (centres unmarked) [compound 211, (1H-Benzoimidazol-5-yl)-{(4-pyridin-2-yl-phenyl)-[1-(2-thiophen-2-yl-ethyl)-1H-tetrazol-5-yl]-methyl}-amine]: 2.2 µM; for `O=[N+]([O-])c1ccc(-n2nnnc2C(Nc2ccc3[nH]cnc3c2)c2csc3ccccc23)cc1` (centres unmarked) [compound 206]: 8.5 µM; for `CCCOc1cccc(C(Nc2ccc3[nH]cnc3c2)c2nnnn2CC2CCCO2)c1` (centres unmarked) [compound 141, (1H-Benzoimidazol-5-yl)-{(3-propoxy-phenyl)-[1-(tetrahydro-furan-2-ylmethyl)-1H-tetrazol-5-yl]-methyl}-amine]: 4 µM.
`Cc1cc(C(Nc2ccc3[nH]cnc3c2)c2nnnn2CC2COC(C)(C)O2)cc(C)c1O` (centres unmarked) [compound 165, 4-{(1H-Benzoimidazol-5-ylamino)-[1-(2,2-dimethyl-[1,3]dioxolan-4-ylmethyl)-1H-tetrazol-5-yl]-methyl}-2,6-dimethyl-phenol]: the half-inhibitory concentration (IC50) came to 5.8 µM.
With `Cc1cc(C)cc(C(Nc2ccc3[nH]cnc3c2)c2nnnn2Cc2ccccc2)c1` (centres unmarked) [compound 124, (1H-Benzoimidazol-5-yl)-[(1-benzyl-1H-tetrazol-5-yl)-(3,5-dimethyl-phenyl)-methyl]-amine], the IC50 is 5.8 µM.
In the case of `COc1ccc(C(Nc2ccc3[nH]cnc3c2)c2nnnn2Cc2ccc(Cl)cc2)cc1F` (centres unmarked) [compound 125, (1H-Benzoimidazol-5-yl)-[[1-(4-chloro-benzyl)-1H-tetrazol-5-yl]-(3-fluoro-4-methoxy-phenyl)-methyl]-amine], the concentration for half-maximal inhibition (IC50) turned out to be 3.1 µM.
Still for that read-out and setting: the same measure for `O=[N+]([O-])c1cc(C(Nc2ccc3[nH]cnc3c2)c2nnnn2CC2CCCO2)ccc1Cl` (centres unmarked) [compound 146]: 3.1 µM.

The same assay, now with this note: purified compound from preparative synthesis; fluorescent assay; read-out: IC50 hQC.
As to `Clc1ccc(Cn2nnnc2C(NCCCn2ccnc2)c2ccc3[nH]ccc3c2)cc1` (centres unmarked) [Compound 6, [[1-(4-Chloro-benzyl)-1H-tetrazol-5-yl]-(1H-indol-5-yl)-methyl]-(3-imidazol-1-yl-propyl)-amine], the IC50 came to 0.45 µM.

Staying with this assay, now noted: read-out: IC50.
Turning to `Clc1ccc(Cn2nnnc2C(NCCCn2ccnc2)c2ccc3[nH]ccc3c2)cc1` (centres unmarked) [Compound 6, [[1-(4-Chloro-benzyl)-1H-tetrazol-5-yl]-(1H-indol-5-yl)-methyl]-(3-imidazol-1-yl-propyl)-amine], the half-inhibitory concentration (IC50) was 0.4 µM.
With `CCOC(=O)C1CCCCC1n1nnnc1C(Nc1ccc2[nH]cnc2c1)c1ccc(Cl)c(F)c1` (centres unmarked) [compound 84], the IC50 was 6.7 µM.
Regarding `Cc1ccc(C(NCCCn2ccnc2)c2nnnn2Cc2ccc(Cl)cc2)cc1C` (centres unmarked) [compound 2, [[1-(4-Chloro-benzyl)-1H-tetrazol-5-yl]-(3,4-dimethyl-phenyl)-methyl]-(3-imidazol-1-yl-propyl)-amine], the IC50 was 6.7 µM.
The same measure, in the same setting: the result for `Cc1ccc2c(C(NCCCn3ccnc3)c3nnnn3C[C@@H]3CCCO3)c[nH]c2c1` (stereo partly drawn) [compound 16, (3-Imidazol-1-yl-propyl)-((6-methyl-1H-indol-3-yl)-{1-[(S)-1-(tetrahydro-furan-2-yl)methyl]-1H-tetrazol-5-yl}-methyl)-amine] reads 7.6 µM; that for `Clc1ccc(Cn2nnnc2[C@H](NCCCn2ccnc2)C2CCC=CO2)cc1` (stereo partly drawn) [compound 9, {(S)-[1-(4-Chloro-benzyl)-1H-tetrazol-5-yl]-3,4-dihydro-2H-pyran-2-yl-methyl}-(3-imidazol-1-yl-propyl)-amine], 4.9 µM; that for `Cc1ccc(C(C)CC(Nc2ccc3[nH]cnc3c2)c2nnnn2C2CCCCC2)o1` (centres unmarked) [compound 96, (1H-Benzoimidazol-5-yl)-[1-(1-cyclohexyl-1H-tetrazol-5-yl)-3-(5-methyl-furan-2-yl)-butyl]-amine], 4.9 µM.
On the same count and under the same terms, the result for `COC(=O)Cn1nnnc1C(NCCCn1ccnc1)c1ccc2ccccc2n1` (centres unmarked) [compound 55, {5-[(3-Imidazol-1-yl-propylamino)-quinolin-2-yl-methyl]-tetrazol-1-yl}-acetic methyl ester] reads 2.2 µM.
The same measure, in the same setting: the same measure for `C1=COC(C(Nc2ccc3[nH]cnc3c2)c2nnnn2C2CCCCC2)CC1` (centres unmarked) [compound 114]: 6.7 µM; for `CC(CC(Nc1ccc2[nH]cnc2c1)c1nnnn1CC1CCCO1)c1ccccc1` (centres unmarked) [compound 97, (1H-Benzoimidazol-5-yl)-{3-phenyl-1-[1-(tetrahydro-furan-2-ylmethyl)-1H-tetrazol-5-yl]-butyl}-amine]: 4 µM.
Turning to `C=CCn1nnnc1C(NCCCn1ccnc1)c1ccc2[nH]ccc2c1` (centres unmarked) [compound 46, [(1-Allyl-1H-tetrazol-5-yl)-(1H-indol-5-yl)-methyl]-(3-imidazol-1-yl-propyl)-amine], the half-inhibitory concentration (IC50) worked out at 7.6 µM.
Still for that read-out and setting: the same measure for `CCCC(C)C(Nc1ccc2[nH]cnc2c1)c1nnnn1CC(=O)N1CCc2ccccc2C1` (centres unmarked) [compound 98, 2-{5-[1-(1H-Benzoimidazol-5-ylamino)-2-methyl-pentyl]-tetrazol-1-yl}-1-(3,4-dihydro-1H-isoquinolin-2-yl)-ethanone]: 6.7 µM; for `CC(Cc1ccc2c(c1)OCO2)C(Nc1ccc2[nH]cnc2c1)c1nnnn1Cc1ccccc1Cl` (centres unmarked) [compound 113]: 3.1 µM; for `Oc1cccc2ccc(C(NCCCn3ccnc3)c3nnnn3C[C@@H]3CCCO3)nc12` (stereo partly drawn) [compound 12, 2-((3-Imidazol-1-yl-propylamino)-{1-[(S)-1-(tetrahydro-furan-2-yl)methyl]-1H-tetrazol-5-yl}-methyl)-quinolin-8-ol]: 2.2 µM.
The same measure, in the same setting: the same measure for `COCCn1nnnc1C(NCCCn1ccnc1)c1cc(C)c(C)cc1C` (centres unmarked) [compound 43, (3-Imidazol-1-yl-propyl)-[[1-(2-methoxy-ethyl)-1H-tetrazol-5-yl]-(2,4,5-trimethyl-phenyl)-methyl]-amine]: 7.6 µM.
Still for that read-out and setting: the result for `Fc1cc(C(Nc2ccc3[nH]cnc3c2)c2nnnn2C2CCCCC2)ccc1Cl` (centres unmarked) [compound 107, (1H-Benzoimidazol-5-yl)-[(4-chloro-3-fluoro-phenyl)-(1-cyclohexyl-1H-tetrazol-5-yl)-methyl]-amine] reads 4.9 µM; that for `CC(C)(C)n1nnnc1C(NCCCn1ccnc1)[C@@H]1CCC=CO1` (stereo in doubt) [compound 61, [(S)-(1-tert-Butyl-1H-tetrazol-5-yl)-3,4-dihydro-2H-pyran-2-yl-methyl]-(3-imidazol-1-yl-propyl)-amine], 6.7 µM.
With `C=CCn1nnnc1C(NCCCn1ccnc1)c1ccc2ccccc2n1` (centres unmarked) [compound 47, [(1-Allyl-1H-tetrazol-5-yl)-quinolin-2-yl-methyl]-(3-imidazol-1-yl-propyl)-amine], the concentration for half-maximal inhibition (IC50) was 3.1 µM.
Still for that read-out and setting: the same measure for `c1ccc2oc(C(Nc3ccc4[nH]cnc4c3)c3nnnn3C3CCCCC3)cc2c1` (centres unmarked) [compound 79, [Benzofuran-2-yl-(1-cyclohexyl-1H-tetrazol-5-yl)-methyl]-(1H-benzoimidazol-5-yl)-amine]: 3.1 µM.
On the same count and under the same terms, the result for `N#Cc1cc(C(NCCCn2ccnc2)c2nnnn2Cc2ccc(Cl)cc2)ccc1F` (centres unmarked) [compound 5, 5-[[1-(4-Chloro-benzyl)-1H-tetrazol-5-yl]-(3-imidazol-1-yl-propylamino)-methyl]-2-fluoro-benzonitrile] reads 6.7 µM.
Same read-out and setting: the result for `CCOC(=O)C1CCCCC1n1nnnc1C(Nc1ccc2[nH]cnc2c1)c1ccc(Cl)cc1` (centres unmarked) [compound 94] reads 9.4 µM.
